Experimental data as given in ChEMBL document CHEMBL1130076, “Synthesis and in vitro evaluation of two progressive series of bifunctional polyhydroxybenzamide catechol-O-methyltransferase inhibitors” (J Med Chem, 1997).

Experiments:
[1] = molecular target: T1, Catechol O-methyltransferase (Sus scrofa, UniProt Q99028); assay: In vitro inhibitory activity against Catechol-O-methyltransferase from porcine liver; Uncompetitive mode of inhibition
T1 sequence (Q99028 whole entry): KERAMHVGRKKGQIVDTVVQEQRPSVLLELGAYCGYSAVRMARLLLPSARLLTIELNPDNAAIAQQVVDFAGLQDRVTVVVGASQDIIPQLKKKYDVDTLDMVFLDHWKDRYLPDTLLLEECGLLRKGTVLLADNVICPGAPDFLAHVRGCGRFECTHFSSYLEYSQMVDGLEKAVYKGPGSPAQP

[2] = molecular target: T1, Catechol O-methyltransferase; assay: In vitro inhibitory activity against Catechol-O-methyltransferase from porcine liver; Competitive mode of inhibition
[3] = compound: CCCNC(=O)c1ccc(O)c(O)c1; assay: (§1) In vitro inhibitory activity against Catechol-O-methyltransferase from porcine liver; No inhibitory action; settings: Sus scrofa
[4] = compound: O=C(NCCCCCCNC(=O)c1ccc(O)c(O)c1)c1ccc(O)c(O)c1; assay: as §1; settings: Sus scrofa
[5] = compound: O=C(NCCCCCNC(=O)c1ccc(O)c(O)c1)c1ccc(O)c(O)c1; assay: as §1; settings: Sus scrofa
[6] = compound: O=C(NCCNC(=O)c1ccc(O)c(O)c1)c1ccc(O)c(O)c1; assay: as §1; settings: Sus scrofa
[7] = compound: COC(=O)c1cc(O)c(O)c(O)c1; assay: (§2) In vitro inhibitory activity against Catechol-O-methyltransferase from porcine liver; settings: Sus scrofa
[8] = compound: C[S+](CC[C@H](N)C(=O)[O-])C[C@H]1O[C@@H](n2cnc3c(N)ncnc32)[C@H](O)[C@@H]1O; assay: as §2; settings: Sus scrofa

## O=C(NCCCCCNC(=O)c1cc(O)c(O)c(O)c1)c1cc(O)c(O)c(O)c1
[1]
  Ki: 26.7 µM

## O=C(NCCCNC(=O)c1cc(O)c(O)c(O)c1)c1cc(O)c(O)c(O)c1
[1]
  Ki: 6.6 µM

## O=C(NCCCCCCNC(=O)c1cc(O)c(O)c(O)c1)c1cc(O)c(O)c(O)c1
[1]
  Ki: 35 µM

## O=C(NCCCNC(=O)c1ccc(O)c(O)c1)c1ccc(O)c(O)c1
[2]
  Ki: 0.3 µM

## O=C(NCCNC(=O)c1cc(O)c(O)c(O)c1)c1cc(O)c(O)c(O)c1
[1]
  Ki: 136 µM

## CCCNC(=O)c1cc(O)c(O)c(O)c1
[2]
  Ki: 0.5 µM

B1: Catechol O-methyltransferase (Sus scrofa), Q99028 (protein)
chain: T1 sequence (Q99028 whole entry)
[3]
  COMT inhibitory activity: No inhibitory action
[4]
  COMT inhibitory activity: No inhibitory action
[5]
  COMT inhibitory activity: No inhibitory action
[6]
  COMT inhibitory activity: No inhibitory action
[7]
  Km: 25.5 µM
[8]
  Km: 44.6 µM
